The nature of data set [1]: Kinematic viscosity of aqueous solutions of non-aqueous solvents (25° C.). Format: physicochemical. An excerpt:
The “kinematic viscosity” herein is a value obtained by dividing viscosity of a liquid by its density and means a value measured using an Ubbelohde viscometer in accordance with Japanese Pharmacopoeia viscosity measuring method. In the invention, according to Japanese Pharmacopoeia, centistokes in CGS system is used as a unit.
These water-soluble acid amides may be used singly or as a mixture of two or more of them. Furthermore, within a range imparting no serious influence on viscosity, in addition to these, water-soluble non-aqueous solvents shown in JP-A-11-193233, for example, those described in the following Table 1 may be used as auxiliary solubilizing means.

For data set [2] the following is noted: as described in JP-B-63-65047; cited from earlier work.

As to `CCO` [Ethanol], the “Kinematic viscosity of aqueous solution” value in data set [1] (concentration 5% (W/V)) is listed as 1.082 Centistokes; in data set [1] (concentration 10% (W/V)), 1.300 Centistokes; in data set [1] (concentration 15% (W/V)), 1.577 Centistokes; in data set [1] (concentration 20% (W/V)), 1.857 Centistokes; in data set [1] (concentration 37% (W/V)) it was 2.479 Centistokes.

In the case of `NC(N)=Nc1nc(CSCCC(N)=NS(N)(=O)=O)cs1` [Famotidine], the water-solubility in data set [2] is given as at most 0.1 w/v %.

Regarding `CC(O)CO` (centres unmarked) [Propylene glycol], the “Kinematic viscosity of aqueous solution” value was determined as 1.067 Centistokes in data set [1] (concentration 5% (W/V)); 1.247 Centistokes in data set [1] (concentration 10% (W/V)); 1.455 Centistokes in data set [1] (concentration 15% (W/V)); 1.729 Centistokes in data set [1] (concentration 20% (W/V)); 3.048 Centistokes in data set [1] (concentration 37% (W/V)).

These data come from US7094414B2, “Famotidine injections” (Astellas Pharma Inc., priority 2000, dated 2006).
